Among the targets are IRAK3 (Homo sapiens, UniProt Q9Y616); MAP3K3 (Homo sapiens, UniProt Q99759); MAP4K2 (Homo sapiens, UniProt Q12851); PDGFRB (Homo sapiens, UniProt P09619); ABL1-nonphosphorylated (Homo sapiens, UniProt P00519); MLK3 (Homo sapiens, UniProt Q16584); CDKL2 (Homo sapiens, UniProt Q92772); ITK (Homo sapiens, UniProt Q08881); TAOK3 (Homo sapiens, UniProt Q9H2K8); HPK1 (Homo sapiens, UniProt Q92918); YANK2 (Homo sapiens, UniProt Q9NY57); KIT(D816V) (Homo sapiens, UniProt P10721, D816V); PFTK1 (Homo sapiens, UniProt O94921); p38-delta (Homo sapiens, UniProt O15264); SBK1 (Homo sapiens, UniProt Q52WX2); LZK (Homo sapiens, UniProt O43283); ROCK1 (Homo sapiens, UniProt Q13464); PRKX (Homo sapiens, UniProt P51817); MST4 (Homo sapiens, UniProt Q9P289); RET(V804M) (Homo sapiens, UniProt P07949, V804M); NEK3 (Homo sapiens, UniProt P51956).

Common to all, as to test: KINOMEscan
Common to all, as to conditions: read-out: Percent Control

Test [1] deals with ABL1(M351T)-phosphorylated (Homo sapiens, UniProt P00519, M351T).
Procedure: (§1) The kinase engagement assay (KINOMEscan®) was performed by DiscoverX assessing binding abilities toward a set of kinases.

Each structure is given as a SMILES string.

Sequence of MST4 (Q9P289 whole entry): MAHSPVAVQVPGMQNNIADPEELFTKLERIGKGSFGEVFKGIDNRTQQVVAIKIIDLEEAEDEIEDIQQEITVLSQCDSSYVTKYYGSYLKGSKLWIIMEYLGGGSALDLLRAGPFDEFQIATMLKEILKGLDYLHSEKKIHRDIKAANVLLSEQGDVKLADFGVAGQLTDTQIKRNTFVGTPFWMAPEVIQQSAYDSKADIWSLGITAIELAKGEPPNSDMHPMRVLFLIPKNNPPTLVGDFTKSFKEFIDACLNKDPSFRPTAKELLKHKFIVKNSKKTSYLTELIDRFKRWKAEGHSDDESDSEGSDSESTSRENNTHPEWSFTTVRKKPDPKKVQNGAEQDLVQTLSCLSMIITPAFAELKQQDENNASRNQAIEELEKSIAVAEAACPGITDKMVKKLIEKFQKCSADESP
Sequence of PRKX (P51817 whole entry): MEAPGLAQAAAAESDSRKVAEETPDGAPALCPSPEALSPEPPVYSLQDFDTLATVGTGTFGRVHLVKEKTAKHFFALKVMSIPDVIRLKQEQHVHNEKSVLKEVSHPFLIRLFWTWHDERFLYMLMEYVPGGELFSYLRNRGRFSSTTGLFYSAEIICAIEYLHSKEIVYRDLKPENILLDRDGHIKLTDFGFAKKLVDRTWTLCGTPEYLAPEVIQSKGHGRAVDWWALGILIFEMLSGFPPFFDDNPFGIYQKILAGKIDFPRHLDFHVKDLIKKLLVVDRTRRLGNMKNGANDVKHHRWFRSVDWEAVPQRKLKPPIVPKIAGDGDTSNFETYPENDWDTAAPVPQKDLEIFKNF
Sequence of CDKL2 (Q92772 whole entry): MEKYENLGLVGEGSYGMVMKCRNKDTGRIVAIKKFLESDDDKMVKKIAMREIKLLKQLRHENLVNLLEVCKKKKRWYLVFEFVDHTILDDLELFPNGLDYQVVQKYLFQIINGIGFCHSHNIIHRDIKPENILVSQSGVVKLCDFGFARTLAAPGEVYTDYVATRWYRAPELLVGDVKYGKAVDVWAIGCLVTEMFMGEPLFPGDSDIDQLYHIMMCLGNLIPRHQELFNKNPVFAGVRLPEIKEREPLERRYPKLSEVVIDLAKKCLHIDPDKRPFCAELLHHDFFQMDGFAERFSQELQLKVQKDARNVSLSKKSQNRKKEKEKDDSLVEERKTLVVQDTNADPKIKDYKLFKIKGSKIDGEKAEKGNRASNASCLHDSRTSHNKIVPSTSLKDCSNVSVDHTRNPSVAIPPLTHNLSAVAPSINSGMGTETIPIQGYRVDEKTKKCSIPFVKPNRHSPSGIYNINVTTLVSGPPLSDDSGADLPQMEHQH
Sequence of IRAK3 (Q9Y616 whole entry): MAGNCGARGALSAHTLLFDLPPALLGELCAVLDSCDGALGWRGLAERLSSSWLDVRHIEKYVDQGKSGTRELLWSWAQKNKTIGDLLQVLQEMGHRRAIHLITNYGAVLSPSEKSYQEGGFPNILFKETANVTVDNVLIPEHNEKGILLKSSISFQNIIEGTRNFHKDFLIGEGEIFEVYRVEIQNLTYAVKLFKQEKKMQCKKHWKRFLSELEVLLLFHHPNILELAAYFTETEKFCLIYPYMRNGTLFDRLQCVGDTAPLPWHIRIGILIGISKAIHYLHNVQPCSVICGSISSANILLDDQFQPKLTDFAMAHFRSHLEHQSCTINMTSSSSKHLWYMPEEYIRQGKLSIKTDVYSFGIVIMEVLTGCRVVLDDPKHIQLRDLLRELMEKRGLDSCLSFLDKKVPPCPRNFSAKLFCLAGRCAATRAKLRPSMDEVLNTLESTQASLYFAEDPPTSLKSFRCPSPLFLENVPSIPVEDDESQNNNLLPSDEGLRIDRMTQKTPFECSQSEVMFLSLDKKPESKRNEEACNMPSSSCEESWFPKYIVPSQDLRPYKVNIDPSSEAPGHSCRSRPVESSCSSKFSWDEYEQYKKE
Sequence of YANK2 (Q9NY57 whole entry): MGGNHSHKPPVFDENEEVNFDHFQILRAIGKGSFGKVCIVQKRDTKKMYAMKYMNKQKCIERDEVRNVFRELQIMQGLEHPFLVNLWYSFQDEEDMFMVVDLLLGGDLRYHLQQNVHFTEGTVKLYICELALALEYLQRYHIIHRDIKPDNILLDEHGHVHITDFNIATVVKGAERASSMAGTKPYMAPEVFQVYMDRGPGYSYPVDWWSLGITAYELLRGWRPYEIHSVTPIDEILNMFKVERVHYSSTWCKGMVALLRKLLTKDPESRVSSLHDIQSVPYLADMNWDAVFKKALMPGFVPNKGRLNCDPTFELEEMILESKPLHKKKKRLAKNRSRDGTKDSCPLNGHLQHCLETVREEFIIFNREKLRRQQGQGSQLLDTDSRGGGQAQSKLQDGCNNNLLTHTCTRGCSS
Sequence of MAP3K3 (Q99759 whole entry): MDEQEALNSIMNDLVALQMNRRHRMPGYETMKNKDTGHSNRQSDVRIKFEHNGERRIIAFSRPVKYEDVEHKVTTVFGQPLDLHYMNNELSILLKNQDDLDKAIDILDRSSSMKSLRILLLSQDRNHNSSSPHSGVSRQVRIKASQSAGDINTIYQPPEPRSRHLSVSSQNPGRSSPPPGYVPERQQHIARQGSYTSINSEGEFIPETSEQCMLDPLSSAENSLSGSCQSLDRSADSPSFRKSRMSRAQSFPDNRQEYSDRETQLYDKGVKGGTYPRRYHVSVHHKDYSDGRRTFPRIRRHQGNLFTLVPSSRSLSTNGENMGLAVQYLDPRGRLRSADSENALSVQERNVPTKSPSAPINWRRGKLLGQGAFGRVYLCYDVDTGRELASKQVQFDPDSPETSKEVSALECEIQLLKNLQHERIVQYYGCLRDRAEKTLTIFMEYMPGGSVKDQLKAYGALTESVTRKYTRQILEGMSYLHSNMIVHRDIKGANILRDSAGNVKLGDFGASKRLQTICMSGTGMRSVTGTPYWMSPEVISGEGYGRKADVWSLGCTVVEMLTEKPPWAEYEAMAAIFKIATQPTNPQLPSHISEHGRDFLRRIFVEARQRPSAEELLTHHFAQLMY
Sequence of NEK3 (P51956 whole entry): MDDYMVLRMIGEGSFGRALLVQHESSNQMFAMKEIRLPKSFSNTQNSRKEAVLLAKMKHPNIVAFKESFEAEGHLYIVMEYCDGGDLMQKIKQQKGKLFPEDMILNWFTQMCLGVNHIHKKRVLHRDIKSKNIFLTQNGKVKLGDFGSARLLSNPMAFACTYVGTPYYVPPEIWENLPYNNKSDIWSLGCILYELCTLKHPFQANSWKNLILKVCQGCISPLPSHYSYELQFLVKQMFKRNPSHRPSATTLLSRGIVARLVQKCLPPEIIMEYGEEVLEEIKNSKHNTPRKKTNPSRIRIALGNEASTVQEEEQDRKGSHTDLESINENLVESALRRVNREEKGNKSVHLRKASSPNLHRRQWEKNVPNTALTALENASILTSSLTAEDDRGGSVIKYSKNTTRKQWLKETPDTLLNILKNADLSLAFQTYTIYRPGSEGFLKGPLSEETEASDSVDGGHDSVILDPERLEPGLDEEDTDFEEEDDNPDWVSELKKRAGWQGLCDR
Sequence of MAP4K2 (Q12851 whole entry): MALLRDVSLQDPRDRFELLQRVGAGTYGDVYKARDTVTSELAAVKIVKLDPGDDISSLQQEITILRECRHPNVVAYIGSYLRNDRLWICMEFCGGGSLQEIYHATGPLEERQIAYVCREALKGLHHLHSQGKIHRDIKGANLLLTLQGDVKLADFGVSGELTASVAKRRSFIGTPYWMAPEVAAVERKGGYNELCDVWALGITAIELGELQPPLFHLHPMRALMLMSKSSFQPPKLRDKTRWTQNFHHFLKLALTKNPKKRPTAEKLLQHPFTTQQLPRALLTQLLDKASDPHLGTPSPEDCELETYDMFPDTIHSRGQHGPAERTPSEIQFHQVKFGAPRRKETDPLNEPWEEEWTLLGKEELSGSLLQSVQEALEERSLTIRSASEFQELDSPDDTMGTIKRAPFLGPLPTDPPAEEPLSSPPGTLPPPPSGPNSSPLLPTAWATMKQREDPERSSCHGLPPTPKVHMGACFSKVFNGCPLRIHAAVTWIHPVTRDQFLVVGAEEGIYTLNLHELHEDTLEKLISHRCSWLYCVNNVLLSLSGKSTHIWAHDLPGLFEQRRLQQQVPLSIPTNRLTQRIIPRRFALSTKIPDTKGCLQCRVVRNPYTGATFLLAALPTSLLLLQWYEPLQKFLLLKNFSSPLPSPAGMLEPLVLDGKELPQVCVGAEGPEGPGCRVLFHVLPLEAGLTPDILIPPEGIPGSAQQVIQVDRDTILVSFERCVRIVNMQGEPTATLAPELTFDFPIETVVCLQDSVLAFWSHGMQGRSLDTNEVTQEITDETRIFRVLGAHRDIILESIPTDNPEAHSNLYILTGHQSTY
Sequence of PFTK1 (O94921 whole entry): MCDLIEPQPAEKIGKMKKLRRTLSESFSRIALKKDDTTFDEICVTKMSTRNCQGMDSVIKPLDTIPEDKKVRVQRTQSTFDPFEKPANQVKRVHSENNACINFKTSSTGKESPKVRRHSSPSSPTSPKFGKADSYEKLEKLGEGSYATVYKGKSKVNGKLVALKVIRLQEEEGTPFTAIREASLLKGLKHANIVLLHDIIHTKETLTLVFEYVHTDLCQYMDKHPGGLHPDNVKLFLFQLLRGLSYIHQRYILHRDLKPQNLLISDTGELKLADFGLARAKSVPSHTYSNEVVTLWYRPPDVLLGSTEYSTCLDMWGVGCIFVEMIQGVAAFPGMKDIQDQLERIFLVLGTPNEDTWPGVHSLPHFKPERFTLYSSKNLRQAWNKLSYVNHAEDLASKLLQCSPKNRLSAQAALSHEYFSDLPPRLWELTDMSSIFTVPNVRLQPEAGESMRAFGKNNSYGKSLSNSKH
Procedure for ABL1-nonphosphorylated: as §1
Procedure for CDKL2: as §1
Procedure for HPK1: as §1
Procedure for IRAK3: as §1
Procedure for ITK: as §1
Procedure for KIT(D816V): as §1
Procedure for LZK: as §1
Procedure for MAP3K3: as §1
Procedure for MAP4K2: as §1
Procedure for MLK3: as §1
Procedure for MST4: as §1
Procedure for NEK3: as §1
Procedure for PDGFRB: as §1
Procedure for PFTK1: as §1
Procedure for PRKX: as §1
Procedure for RET(V804M): as §1
Procedure for ROCK1: as §1
Procedure for SBK1: as §1
Procedure for TAOK3: as §1
Procedure for YANK2: as §1
Procedure for p38-delta: as §1

As to `O=C1CCC(N2C(=O)c3cccc(NCCCCCCCCNC(=O)N4CC[C@H](NC5=Nc6cc(F)ccc6N(CC(F)F)c6ccc(Cl)cc65)C4)c3C2=O)C(=O)N1` (stereo partly drawn) [BJG-05-039, (3S)-3-((2-Chloro-5-(2,2-difluoroethyl)-8-fluoro-5H-dibenzo[b,e][1,4]diazepin-11-yl)amino)-N-(8-((2-(2,6-dioxopiperidin-3-yl)-1,3-dioxoisoindolin-4-yl)amino)octyl)pyrrolidine-1-carboxamide], the remaining binding at 10 µM is 55% on IRAK3; 100% on MAP3K3; 89% at MAP4K2; 86% on PDGFRB; 83% at ABL1-nonphosphorylated; 88% at MLK3. In addition, the remaining binding at 10 µM was found to be 77% on CDKL2; 91% at ITK; 85% at TAOK3; 92% on HPK1; 99% on YANK2; 87% at KIT(D816V). The remaining binding at 10 µM is 88% at PFTK1; 92% on p38-delta; 100% in [1]; 82% at SBK1; 82% at LZK; 100% at ROCK1. For the same compound, the remaining binding at 10 µM was 48% on PRKX, 86% at MST4, 59% on RET(V804M) and 100% at NEK3.
